Source: patent US8586755B2, “Substituted nicotinamides as KCNQ2/3 modulators” (Grünenthal GmbH, priority 2009, dated 2013)
pEC50: −log10 of the molar value.

Target: T1, KCNQ2/3 channels (Homo sapiens, UniProt O43525+O43526)
T1 construct: expressed in transfected cells
Test: Fluorescence assay using a voltage sensitive dye (fluorimetry)
Format: cell-based
Details: CHO-K1 cells expressing KCNQ2/3 channels; for pEC50: agonistic activity; for Emax / Fluorimetry % efficacy (retigabine 50 μM = 100%): retigabine 50 μM = 100%; for Emax: read-out: Fluorimetry % efficacy (retigabine 50 μM = 100%)
In short: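 CHO-K1 cells expressing human KCNQ2/3, loaded 45 min with red membrane-potential dye in ES buffer pH 7.4 (1 mM KCl), compound 30 min at room temperature. Fluorescence (525/560 nm) read before (F1) and at peak after KCl to 92 mM final (F2); agonism from F2/F1 change, EC50 fitted.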

Row | SMILES | pEC50 | Emax | Fluorimetry % efficacy (retigabine 50 μM = 100%)
1 | O=C(NCc1cccnc1)c1cccnc1SCCCc1ccc(F)cc1 [compound 127, 2-[3-(4-Fluorophenyl)-propylsulfanyl]-N-(pyridin-3-yl-methyl)-pyridine-3-carboxylic acid amide] | 5.73 | 147% | 
2 | O=C(NCc1ccncc1)c1cccnc1SCCCc1ccc(F)cc1 [compound 128, 2-[3-(4-Fluorophenyl)-propylsulfanyl]-N-(pyridin-4-yl-methyl)-pyridine-3-carboxylic acid amide] | 5.73 | 122% | 
3 | COC(=O)c1cccc(CNC(=O)c2cccnc2SCCCc2ccc(F)cc2)c1 [compound 129, 3-[[[2-[3-(4-Fluorophenyl)-propylsulfanyl]-pyridine-3-carbonyl]amino]-methyl]-benzoic acid methyl ester] | 6.49 | 122% | 
4 | COc1ccccc1CCCNC(=O)c1cccnc1SCCCc1ccc(F)cc1 [compound 130, 2-[3-(4-Fluorophenyl)-propylsulfanyl]-N-[3-(2-methoxyphenyl)-propyl]-pyridine-3-carboxylic acid amide] | 6.33 | 164% | 
5 | O=C(O)c1cccc(CNC(=O)c2cccnc2SCCCc2ccc(F)cc2)c1 [compound 131] |  |  | 25%
6 | CC(CCc1cccc(C(F)(F)F)c1)Sc1ncccc1C(=O)NCc1ccc(F)cc1 (stereo not drawn) [compound 132, N-[(4-Fluorophenyl)-methyl]-2-[[1-methyl-3-[3-(trifluoromethyl)phenyl]-propyl]sulfanyl]-pyridine-3-carboxylic acid amide] | 7.09 | 120% | 
7 | O=C(NCCCn1cccn1)c1cccnc1SCCCc1ccc(F)cc1 [compound 135, 2-[3-(4-Fluorophenyl)-propylsulfanyl]-N-[3-(1H-pyrazol-1-yl)-propyl]-pyridine-3-carboxylic acid amide] | 5.50 | 154% | 
8 | O=C(NCc1ccc2ccccc2c1)c1cccnc1SCCCc1ccc(F)cc1 [compound 136, 2-[3-(4-Fluorophenyl)-propylsulfanyl]-N-(naphthalen-2-yl-methyl)-pyridine-3-carboxylic acid amide] |  | 28% | 
9 | O=C(NCc1ccc2c(c1)OCCO2)c1cccnc1SCCCc1ccc(F)cc1 [compound 137, N-(2,3-Dihydro-[1,4]benzodioxin-6-yl-methyl)-2-[3-(4-fluorophenyl)-propylsulfanyl]-pyridine-3-carboxylic acid amide] | 6.44 | 93% | 
10 | O=C(NCc1cccc(N2CCOCC2)c1)c1cccnc1SCCCc1ccc(F)cc1 [compound 138, 2-[3-(4-Fluorophenyl)-propylsulfanyl]-N-[(3-morpholin-4-yl-phenyl)-methyl]-pyridine-3-carboxylic acid amide] | 6.38 | 92% | 
11 | O=C(NCc1ccc2c(c1)OCC2)c1cccnc1SCCCc1ccc(F)cc1 [compound 139, N-(2,3-Dihydro-benzofuran-6-yl-methyl)-2-[3-(4-fluorophenyl)-propylsulfanyl]-pyridine-3-carboxylic acid amide] | 7.00 | 81% | 
12 | O=C(NCc1cccc(-n2cccn2)c1)c1cccnc1SCCCc1ccc(F)cc1 [compound 140, 2-[3-(4-Fluorophenyl)-propylsulfanyl]-N-[[3-(1H-pyrazol-1-yl)-phenyl]-methyl]-pyridine-3-carboxylic acid amide] | 6.51 | 88% | 
13 | O=C(NCCCn1ccnn1)c1cccnc1SCCCc1ccc(F)cc1 [compound 141, 2-[3-(4-Fluorophenyl)-propylsulfanyl]-N-[3-(1H-[1,2,3]triazol-1-yl)-propyl]-pyridine-3-carboxylic acid amide] | 4.89 | 86% | 
14 | O=C(NCC1C2CCC1CC2)c1cccnc1SCCCc1ccc(F)cc1 (stereo not drawn) [compound 142, N-(7-Bicyclo[2.2.1]heptanyl-methyl)-2-[3-(4-fluorophenyl)-propylsulfanyl]-pyridine-3-carboxylic acid amide] | 7.01 | 260% | 
15 | O=C(NCc1ccccn1)c1cccnc1SCCCc1ccc(F)cc1 [compound 143] | 5.82 |  | 175%

The remaining lines, values ahead:

Row | pEC50 | Emax | Fluorimetry % efficacy (retigabine 50 μM = 100%) | SMILES
16 | 6.09 | 215% |  | O=C(NCc1nccs1)c1cccnc1SCCCc1ccc(F)cc1 [compound 144, 2-[3-(4-Fluorophenyl)-propylsulfanyl]-N-(thiazol-2-yl-methyl)-pyridine-3-carboxylic acid amide]
17 | 5.83 | 174% |  | O=C(NCc1cncs1)c1cccnc1SCCCc1ccc(F)cc1 [compound 145, 2-[3-(4-Fluorophenyl)-propylsulfanyl]-N-(thiazol-5-yl-methyl)-pyridine-3-carboxylic acid amide]
18 | 5.59 | 193% |  | O=C(NCc1ncco1)c1cccnc1SCCCc1ccc(F)cc1 [compound 146, 2-[3-(4-Fluorophenyl)-propylsulfanyl]-N-(oxazol-2-yl-methyl)-pyridine-3-carboxylic acid amide]
19 |  |  | 34% | Cc1ccnc(SCCCc2ccc(F)cc2)c1C(=O)NCc1cccs1 [compound 147]
20 | 5.71 | 85% |  | Cc1ccnc(SCCCc2ccc(F)cc2)c1C(=O)NCCC(C)(C)C [compound 148, N-(3,3-Dimethyl-butyl)-2-[3-(4-fluorophenyl)-propylsulfanyl]-4-methyl-pyridine-3-carboxylic acid amide]
21 | 7.03 | 181% |  | CC(CCc1cccc(C(F)(F)F)c1)Sc1ncccc1C(=O)NCCC(C)(C)C (stereo not drawn) [compound 149, N-(3,3-Dimethyl-butyl)-2-[[1-methyl-3-[3-(trifluoromethyl)phenyl]-propyl]sulfanyl]-pyridine-3-carboxylic acid amide]
22 | 5.83 | 96% |  | O=C(NCc1ccc2cccnc2c1)c1cccnc1SCCCc1ccc(F)cc1 [compound 150, 2-[3-(4-Fluorophenyl)-propylsulfanyl]-N-(quinolin-7-yl-methyl)-pyridine-3-carboxylic acid amide]
23 | 6.18 | 95% |  | O=C(NCc1cccc(-c2ccccn2)c1)c1cccnc1SCCCc1ccc(F)cc1 [compound 151, 2-[3-(4-Fluorophenyl)-propylsulfanyl]-N-[(3-pyridin-2-yl-phenyl)-methyl]-pyridine-3-carboxylic acid amide]
24 | 5.89 | 89% |  | O=C(NCc1cccc(-c2cccnc2)c1)c1cccnc1SCCCc1ccc(F)cc1 [compound 152, 2-[3-(4-Fluorophenyl)-propylsulfanyl]-N-[(3-pyridin-3-yl-phenyl)-methyl]-pyridine-3-carboxylic acid amide]
25 | 5.90 | 155% |  | C[C@H](CCc1ccccc1)Sc1ncccc1C(=O)NCCC(C)(C)C [compound 153, N-(3,3-Dimethyl-butyl)-2-[[(1R)-1-methyl-3-phenyl-propyl]sulfanyl]-pyridine-3-carboxylic acid amide]
26 | 6.63 | 207% |  | C[C@@H](CCc1ccccc1)Sc1ncccc1C(=O)NCCC(C)(C)C [compound 154, N-(3,3-Dimethyl-butyl)-2-[[(1S)-1-methyl-3-phenyl-propyl]sulfanyl]-pyridine-3-carboxylic acid amide]
27 | 6.18 | 159% |  | CC(C)(C)CCNC(=O)c1cccnc1SC1CCCC1Cc1ccccc1 (stereo not drawn) [compound 155, 2-[(2-Benzyl-cyclopentyl)sulfanyl]-N-(3,3-dimethyl-butyl)-pyridine-3-carboxylic acid amide]
28 | 6.96 | 249% |  | O=C(NCC1C2CCC1CC2)c1cccnc1SCCCc1cccc(C(F)(F)F)c1 (stereo not drawn) [compound 156, N-(7-Bicyclo[2.2.1]heptanyl-methyl)-2-[3-[3-(trifluoromethyl)phenyl]-propylsulfanyl]-pyridine-3-carboxylic acid amide]
29 |  | 88% |  | O=C(NCCCn1cncn1)c1cccnc1SCCCc1ccc(F)cc1 [compound 157, 2-[3-(4-Fluorophenyl)-propylsulfanyl]-N-[3-(1H-[1,2,4]triazol-1-yl)-propyl]-pyridine-3-carboxylic acid amide]
30 |  | 30% |  | O=C(NCc1nnco1)c1cccnc1SCCCc1ccc(F)cc1 [compound 158, 2-[3-(4-Fluorophenyl)-propylsulfanyl]-N-([1,3,4]oxadiazol-2-yl-methyl)-pyridine-3-carboxylic acid amide]
31 | 6.17 | 113% |  | O=C(NCc1cccc(-c2ccncc2)c1)c1cccnc1SCCCc1ccc(F)cc1 [compound 159, 2-[3-(4-Fluorophenyl)-propylsulfanyl]-N-[(3-pyridin-4-yl-phenyl)-methyl]-pyridine-3-carboxylic acid amide]
32 | 6.64 | 74% |  | O=C(NCc1ccc2c(c1)N(CC1CC1)CCO2)c1cccnc1SCCCc1ccc(F)cc1 [compound 160, N-[[4-(Cyclopropyl-methyl)-3,4-dihydro-2H-[1,4]benzoxazin-6-yl]-methyl]-2-[3-(4-fluorophenyl)-propylsulfanyl]-pyridine-3-carboxylic acid amide]
33 | 6.84 | 67% |  | CCN1CCOc2ccc(CNC(=O)c3cccnc3SCCCc3ccc(F)cc3)cc21 [compound 161, N-[(4-Ethyl-3,4-dihydro-2H-[1,4]benzoxazin-6-yl)-methyl]-2-[3-(4-fluorophenyl)-propylsulfanyl]-pyridine-3-carboxylic acid amide]
34 | 6.78 | 83% |  | CN1CCOc2ccc(CNC(=O)c3cccnc3SCCCc3ccc(F)cc3)cc21 [compound 162, 2-[3-(4-Fluorophenyl)-propylsulfanyl]-N-[(4-methyl-3,4-dihydro-2H-[1,4]benzoxazin-6-yl)-methyl]-pyridine-3-carboxylic acid amide]
